ChEMBL document CHEMBL3856212, “Synthesis, anti-proliferative and genotoxicity studies of 6-chloro-5-(2-substituted-ethyl)-1,3-dihydro-2H-indol-2-ones and 6-chloro-5-(2-chloroethyl)-3-(alkyl/ary-2-ylidene)indolin-2-ones” (Eur J Med Chem, 2016)

Columns and labels:
[1] = Cytotoxicity against human HL-60(TB) cells assessed as growth inhibition after 48 hrs by SRB assay; type: functional; conditions: HL-60, 48 h
[2] = Cytotoxicity against human MOLT4 cells assessed as growth inhibition after 48 hrs by SRB assay; type: functional; conditions: MOLT-4, 48 h
[3] = Cytotoxicity against human SR cells assessed as growth inhibition after 48 hrs by SRB assay; type: functional
[4] = Cytotoxicity against human EKVX cells assessed as growth inhibition after 48 hrs by SRB assay; type: functional
[5] = Cytotoxicity against human HOP62 cells assessed as growth inhibition after 48 hrs by SRB assay; type: functional; conditions: HOP-62, 48 h
[6] = Cytotoxicity against human NCI-H23 cells assessed as growth inhibition after 48 hrs by SRB assay; type: functional; conditions: NCI-H23, 48 h
[7] = Cytotoxicity against human HCC2998 cells assessed as growth inhibition after 48 hrs by SRB assay; type: functional; conditions: HCC 2998, 48 h
[8] = Cytotoxicity against human HCT15 cells assessed as growth inhibition after 48 hrs by SRB assay; type: functional; conditions: HCT-15, 48 h
[9] = Cytotoxicity against human SF268 cells assessed as growth inhibition after 48 hrs by SRB assay; type: functional; conditions: SF-268, 48 h
[10] = Cytotoxicity against human SF295 cells assessed as growth inhibition after 48 hrs by SRB assay; type: functional; conditions: SF-295, 48 h
[11] = Cytotoxicity against human OVCAR8 cells assessed as growth inhibition after 48 hrs by SRB assay; type: functional; conditions: OVCAR-8, 48 h
[12] = Cytotoxicity against human ACHN cells assessed as growth inhibition after 48 hrs by SRB assay; type: functional
[13] = Cytotoxicity against human Caki1 cells assessed as growth inhibition after 48 hrs by SRB assay; type: functional; conditions: CAKI-1, 48 h
[14] = Cytotoxicity against human SN12C cells assessed as growth inhibition after 48 hrs by SRB assay; type: functional
[15] = Cytotoxicity against human Hs 578T cells assessed as growth inhibition after 48 hrs by SRB assay; type: functional
[16] = Cytotoxicity against human T47D cells assessed as growth inhibition after 48 hrs by SRB assay; type: functional
[17] = Cytotoxicity against human NCI-H23 cells assessed as assessed as growth inhibition at 10^-5 M after 48 hrs by SRB assay relative to control; type: functional; conditions: NCI-H23, 48 h, read-out: GI
[18] = Cytotoxicity against human HCC2998 cells assessed as assessed as growth inhibition at 10^-5 M after 48 hrs by SRB assay relative to control; type: functional; conditions: HCC 2998, 48 h, read-out: GI
[19] = Cytotoxicity against human KM12 cells assessed as assessed as growth inhibition at 10^-5 M after 48 hrs by SRB assay relative to control; type: functional; conditions: KM12, 48 h, read-out: GI
[20] = Cytotoxicity against human SF268 cells assessed as assessed as growth inhibition at 10^-5 M after 48 hrs by SRB assay relative to control; type: functional; conditions: SF-268, 48 h, read-out: GI
[21] = Cytotoxicity against human SF295 cells assessed as assessed as growth inhibition at 10^-5 M after 48 hrs by SRB assay relative to control; type: functional; conditions: SF-295, 48 h, read-out: GI
[22] = Cytotoxicity against human SNB75 cells assessed as assessed as growth inhibition at 10^-5 M after 48 hrs by SRB assay relative to control; type: functional; conditions: SNB-75, 48 h, read-out: GI
[23] = Cytotoxicity against human M14 cells assessed as assessed as growth inhibition at 10^-5 M after 48 hrs by SRB assay relative to control; type: functional; conditions: M14, 48 h, read-out: GI
[24] = Cytotoxicity against human MDA-MB-435 cells assessed as assessed as growth inhibition at 10^-5 M after 48 hrs by SRB assay relative to control; type: functional; conditions: MDA-MB-435, 48 h, read-out: GI
[25] = Cytotoxicity against human SK-MEL-2 cells assessed as assessed as growth inhibition at 10^-5 M after 48 hrs by SRB assay relative to control; type: functional; conditions: SK-MEL-2, 48 h, read-out: GI
[26] = Cytotoxicity against human UACC257 cells assessed as assessed as growth inhibition at 10^-5 M after 48 hrs by SRB assay relative to control; type: functional; conditions: UACC-257, 48 h, read-out: GI
[27] = Cytotoxicity against human OVCAR3 cells assessed as assessed as growth inhibition at 10^-5 M after 48 hrs by SRB assay relative to control; type: functional; conditions: OVCAR-3, 48 h, read-out: GI
[28] = Cytotoxicity against human SKOV3 cells assessed as assessed as growth inhibition at 10^-5 M after 48 hrs by SRB assay relative to control; type: functional; conditions: SK-OV-3, 48 h, read-out: GI
[29] = Cytotoxicity against human SN12C cells assessed as assessed as growth inhibition at 10^-5 M after 48 hrs by SRB assay relative to control; type: functional; conditions: read-out: GI
[30] = Cytotoxicity against human PC3 cells assessed as assessed as growth inhibition at 10^-5 M after 48 hrs by SRB assay relative to control; type: functional; conditions: PC-3, 48 h, read-out: GI
[31] = Cytotoxicity against human MDA-MB-231 cells assessed as assessed as growth inhibition at 10^-5 M after 48 hrs by SRB assay relative to control; type: functional; conditions: MDA-MB-231, 48 h, read-out: GI
Mus musculus = organism: Mus musculus; assay: Genotoxicity in mouse EAC cells at 125 uM after 24 hrs by micronucleus assay (reference value: 3.5 +/- 0.30%); type: toxicity, cell-based; conditions: ehrlich
[32] = Induction of apoptosis in mouse EAC cells at 125 uM after 24 hrs by acridine orange dye-based fluorescence microscopy (reference value: 0.66 +/- 0.33%); type: cell-based; conditions: ehrlich
[33] = Induction of apoptosis in mouse EAC cells at 375 uM after 24 hrs by acridine orange dye-based fluorescence microscopy (reference value: 0.66 +/- 0.33%); type: cell-based; conditions: ehrlich
[34] = read-out: LD50 (the source's name)

O=C1Cc2cc(CCN3CCNCC3)c(Cl)cc2N1
GI50 [1]: 4.3 µM
TGI [1]: > 1 µM
CC50 [1, 34]: > 1 µM
GI50 [2]: 1 µM
TGI [2]: > 1 µM
CC50 [2, 34]: > 1 µM
GI50 [3]: 6.2 µM
TGI [3]: > 1 µM
CC50 [3, 34]: > 1 µM
GI50 [4]: 3.58 µM
TGI [4]: > 1 µM
CC50 [4, 34]: > 1 µM
GI50 [5]: 1.93 µM
TGI [5]: > 1 µM
CC50 [5, 34]: > 1 µM
GI50 [6]: 4.64 µM
TGI [6]: > 1 µM
CC50 [6, 34]: > 1 µM
GI50 [7]: 4.66 µM
TGI [7]: > 1 µM
CC50 [7, 34]: > 1 µM
GI50 [8]: 6.23 µM
TGI [8]: > 1 µM
CC50 [8, 34]: > 1 µM
GI50 [9]: 1.27 µM
TGI [9]: > 1 µM
CC50 [9, 34]: > 1 µM
GI50 [10]: 4.2 µM
TGI [10]: > 1 µM
CC50 [10, 34]: > 1 µM
GI50 [11]: 3.68 µM
TGI [11]: > 1 µM
CC50 [11, 34]: > 1 µM
GI50 [12]: 1 µM
TGI [12]: > 1 µM
CC50 [12, 34]: > 1 µM
GI50 [13]: 6.11 µM
TGI [13]: > 1 µM
CC50 [13, 34]: > 1 µM
GI50 [14]: 6 µM
TGI [14]: > 1 µM
CC50 [14, 34]: > 1 µM
GI50 [15]: 1.57 µM
TGI [15]: > 1 µM
CC50 [15, 34]: > 1 µM
GI50 [16]: 2.91 µM
TGI [16]: > 1 µM
CC50 [16, 34]: > 1 µM
inhibition of growth at 10 µM [17]: 77.2%
inhibition of growth at 10 µM [18]: 24.3%
inhibition of growth at 10 µM [19]: 70.4%
inhibition of growth at 10 µM [20]: 27.9%
inhibition of growth at 10 µM [21]: 46.4%
inhibition of growth at 10 µM [22]: 38.6%
inhibition of growth at 10 µM [23]: 75.5%
inhibition of growth at 10 µM [24]: 82%
inhibition of growth at 10 µM [25]: 53.9%
inhibition of growth at 10 µM [26]: 48%
inhibition of growth at 10 µM [27]: 17.2%
inhibition of growth at 10 µM [28]: 33.2%
inhibition of growth at 10 µM [29]: 52.8%
inhibition of growth at 10 µM [30]: 16.5%
inhibition of growth at 10 µM [31]: 64.1%
Activity (Mus musculus): 3.36%
Activity [32]: 1%
Activity [33]: 1.33%
